From publication PMC8152814, “The modulatory role of sulfated and non-sulfated small molecule heparan sulfate-glycomimetics in endothelial dysfunction: absolute structural clarification, molecular docking and simulated dynamics, SAR analyses and ADMET studies” (RSC Medicinal Chemistry, 2021)

Key:
hERG = target: T1, hERG (Homo sapiens, UniProt Q12809); assay: hERG automated patch clamp (IonWorks, CHO-hERG cells); format: cell-based; settings: CHO cells stably transfected with hERG, top concentration 25 µM
T1 construct: host or cells: CHO cells stably transfected with hERG
Protocol: Physicochemical and ADMET properties of representative glycomimetics. […] The final incubation volume is 50 µL. […] Two control compounds are included with each species. All incubations are performed singularly for each test compound. […] The control (minus NADPH) is incubated for 45 min. […] The cells are then positioned over a small hole at the bottom of each well by applying a vacuum beneath the plate to form an electrical seal. The vacuum is applied through a single compartment common to all wells which is filled with intracellular solution (buffered to pH 7.2 with HEPES). The resistance of each seal is measured via a common ground-electrode in the intracellular compartment and individual electrodes placed into each of the upper wells. Electrical access to the cell is then achieved by circulating a perforating agent, amphotericin B, underneath the PatchPlateTM. The pre-compound hERG current is then measured. An electrode is positioned in the extracellular compartment and a holding potential of -80 mV applied for 15 s. The hERG channels are then activated by applying a depolarising step to +40 mV for 5 s and then clamped at -50 mV for 4 s to elicit the hERG tail current, before returning to -80 mV for 0.3 s. […]

Chemical stability = format: physicochemical
Description: | column: α-4; β-5; R-10; S-10

Caco-2 cells = assay: Caco-2 permeability (bi-directional); format: in vitro ADME
Protocol: Physicochemical and ADMET properties of representative glycomimetics. […]
ymax = mean vehicle control response
Caco-2 Permeability (A-B or Bi-directional)
Caco-2 cells (ATCC, Virginia, USA) are used between passage numbers 40-60. Cells are seeded onto Millipore Multiscreen Transwell plates at 1 x 10^5 cells/cm2. The cells are cultured in DMEM and media is changed every two or three days. On day 20 the permeability study is performed. Cell culture and assay incubations are carried out at 37 °C in an atmosphere of 5 % CO2 with a relative humidity of 95%. On the day of the assay, the monolayers are prepared by rinsing both apical and basolateral surfaces twice with Hanks Balanced Salt Solution (HBSS) at the desired pH warmed to 37 °C. Cells are then incubated with HBSS at the desired pH in both apical and basolateral compartments for 40 min to stabilise physiological […]
The dosing solutions are prepared by diluting test compound with assay buffer to give a final test compound concentration of 10 µM (final DMSO concentration of 1 % v/v). The fluorescent integrity marker lucifer yellow is also included in the dosing solution. Analytical standards are prepared from test compound DMSO dilutions and transferred to buffer, maintaining a 1% v/v DMSO concentration. Typical assay buffer is composed of supplemented HBSS pH 7.4 but a range of other buffers and pH values can be used.
For assessment of A-B permeability, HBSS is removed from the apical compartment and replaced with test compound dosing solution. The apical compartment insert is then placed into a companion plate containing fresh buffer (containing 1 % v/v DMSO). For assessment of B-A permeability, HBSS is removed from the companion plate and replaced with test compound dosing solution. Fresh buffer (containing 1 % v/v DMSO) is added to the apical compartment insert, which is then placed into the companion plate.
At 120 min the apical compartment inserts and the companion plates are separated and apical and basolateral samples diluted for analysis. Test compound permeability is assessed in duplicate. Compounds of known permeability characteristics are run as controls on each assay plate. Test and control compounds are quantified by LC-MS/MS cassette analysis using an 8-point calibration with appropriate dilution of the samples. The starting concentration (C0) is determined from the dosing solution and the experimental recovery calculated from C0 and both apical and basolateral compartment concentrations.
The integrity of the monolayer throughout the experiment is checked by monitoring lucifer yellow permeation using fluorimetric analysis. Lucifer yellow permeation is high if monolayers have been damaged. If a lucifer yellow Papp value is above a pre-defined threshold in one individual test compound well, the compound may be re-tested or an n = 1 result is reported.
If lucifer yellow Papp values are above the threshold in both replicate wells for a test compound, the compound is re-tested. If this re-occurs upon repeat in both wells then toxicity or inherent fluorescence of the test compound is assumed.
The permeability coefficient (Papp) for each compound is calculated from the following […]
Where dQ/dt is the rate of permeation of the drug across the cells, C0 is the donor compartment concentration at time zero and A is the area of the cell monolayer. C0 is obtained from analysis […]
For bi-directional experiments, an efflux ratio (ER) is calculated from mean A-B and B-A data.
Three control compounds are screened alongside the test compounds, atenolol (human absorption 50%), propranolol (human absorption 90%) and talinolol (a substrate for […]

T1 sequence (Q12809 whole entry): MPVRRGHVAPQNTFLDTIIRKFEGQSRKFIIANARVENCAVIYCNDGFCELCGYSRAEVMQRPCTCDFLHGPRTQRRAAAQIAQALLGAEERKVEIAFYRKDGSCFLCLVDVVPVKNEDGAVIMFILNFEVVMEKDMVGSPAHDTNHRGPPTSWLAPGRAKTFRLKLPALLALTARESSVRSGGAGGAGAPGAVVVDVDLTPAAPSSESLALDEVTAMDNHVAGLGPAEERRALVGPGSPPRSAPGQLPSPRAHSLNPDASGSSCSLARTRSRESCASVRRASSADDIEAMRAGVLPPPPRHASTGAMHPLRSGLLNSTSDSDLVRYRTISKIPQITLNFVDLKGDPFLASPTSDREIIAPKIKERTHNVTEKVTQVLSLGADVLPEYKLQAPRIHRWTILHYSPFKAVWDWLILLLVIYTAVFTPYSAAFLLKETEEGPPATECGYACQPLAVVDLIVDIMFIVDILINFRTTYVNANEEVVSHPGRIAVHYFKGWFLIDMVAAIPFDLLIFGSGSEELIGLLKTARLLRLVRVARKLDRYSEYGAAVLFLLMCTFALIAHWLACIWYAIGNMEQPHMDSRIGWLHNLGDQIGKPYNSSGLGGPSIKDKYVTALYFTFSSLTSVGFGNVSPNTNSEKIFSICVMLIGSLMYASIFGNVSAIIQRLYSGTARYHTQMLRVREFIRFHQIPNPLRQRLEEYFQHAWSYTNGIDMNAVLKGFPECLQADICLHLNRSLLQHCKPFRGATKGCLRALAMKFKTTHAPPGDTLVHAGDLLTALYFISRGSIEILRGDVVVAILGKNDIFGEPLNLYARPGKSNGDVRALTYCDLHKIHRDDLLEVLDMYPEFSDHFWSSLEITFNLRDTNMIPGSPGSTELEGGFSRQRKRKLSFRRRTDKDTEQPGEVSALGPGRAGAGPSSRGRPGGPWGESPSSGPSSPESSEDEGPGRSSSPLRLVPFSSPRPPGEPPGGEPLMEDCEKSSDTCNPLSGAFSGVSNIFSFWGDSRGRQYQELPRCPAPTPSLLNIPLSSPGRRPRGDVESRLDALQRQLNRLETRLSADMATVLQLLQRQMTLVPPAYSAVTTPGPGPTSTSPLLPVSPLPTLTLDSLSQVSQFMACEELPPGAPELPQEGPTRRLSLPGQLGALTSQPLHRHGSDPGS

Structure (SMILES)	IC50 at 300 s (hERG; human, pH 7.2)	Chemical stability (Chemical stability)	Caco-2 cell permeability levels (Caco-2 cells)	Caco-2 (B2A Papp) (Caco-2 cells; 10 µM, 120 min)	IC50 (hERG)	Caco-2 (A2B Papp) (Caco-2 cells; A2B, 10 µM, 120 min)
COC(=O)c1cc(OC[C@H](COS(=O)(=O)[O-])OS(=O)(=O)[O-])ccc1OCCCCOS(=O)(=O)[O-].[Na+].[Na+].[Na+] [Compound R-10, sodium (R)-3-(3-(methoxycarbonyl)-4-(4-(sulfonatooxy)butoxy)phenoxy)propane-1,2-diyl bis(sulfate)]	> 25 µM	Yes	low or not detected	Not detected		
COC(=O)c1cc(OC[C@@H](COS(=O)(=O)[O-])OS(=O)(=O)[O-])ccc1OCC(COS(=O)(=O)[O-])OS(=O)(=O)[O-].[Na+].[Na+].[Na+].[Na+] (mixture of isomers) [α-4, sodium 3-(4-((S)-2,3-bis(sulfonatooxy)propoxy)-2-(methoxycarbonyl)phenoxy)propane-1,2-diyl bis(sulfate)]		Yes				
COC(=O)c1cc(OC[C@@H](COS(=O)(=O)[O-])OS(=O)(=O)[O-])ccc1OCCCCOS(=O)(=O)[O-].[Na+].[Na+].[Na+] [Compound S-10, sodium (S)-3-(3-(methoxycarbonyl)-4-(4-(sulfonatooxy)butoxy)phenoxy)propane-1,2-diyl bis(sulfate)]		Yes				
O=C([O-])c1cc(OC[C@H](COS(=O)(=O)[O-])OS(=O)(=O)[O-])ccc1OCC(COS(=O)(=O)[O-])OS(=O)(=O)[O-].[Na+].[Na+].[Na+].[Na+].[Na+] (mixture of isomers) [β-5, sodium 5-((R)-2,3-bis(sulfonatooxy)propoxy)-2-(2,3-bis(sulfonatooxy)propoxy)benzoate]		Yes	low or not detected	Not detected	> 25 µM	Not detected
